The source of these data is patent US20220370461A1, “USE OF IMIDAZOPYRIMIDINE OR IMIDAZOTRIAZINE COMPOUNDS FOR PREVENTION, ALLEVIATION, OR TREATMENT OF COGNITIVE DISORDERS, OR FOR IMPROVING COGNITIVE FUNCTION” (SK BIOPHARMACEUTICALS CO., LTD., priority 2019, published 2022).

What all share (format): in vivo
Assay [1] concerns rat model exhibiting cognitive ability decreased by treatment with dizocilpine. The assay is described as follows: Y-maze test in rat model with cognitive ability decreased by dizocilpine. The protocol: (§1) Male rats (Wistar, 4 weeks old, Orient Bio Co., Ltd.) were purchased and acclimatized for one week or more in an animal cage. The experimental animals were raised in a light-controlled environment (illuminated for 12 hours/nonilluminated for 12 hours) and stored and managed according to the laboratory animal care standards of the Institutional Animal Care and Use Committee in an environment where a temperature of 19° C. to 25° C. and a relative humidity of 30% to 70% were maintained and water and food could be freely available. The rats were stabilized for one week or more, and then used for a Y-maze test. The rats were randomly divided into groups and the test was performed under illumination.
To create an animal model inducing symptoms of decreased cognitive ability, experimental animals were treated with dizocilpine, an NMDA receptor inhibitor.
(§2) Dizocilpine (purchased from Sigma) was dissolved in physiological saline used as a vehicle to be freshly prepared, and subcutaneously administered at a dose of 0.1 mg/kg in a volume of 1 ml per 1 kg of rat body weight 30 minutes before training. To a control group, only physiological saline was administered.
The test compound was dissolved in 5% DMSO in 9.5% Cremophor, and orally administered at doses of 0.1, 0.3, and 1 mg/kg in a volume of 5 ml per 1 kg of rat body weight one hour before training. To a control group, only vehicle (5% DMSO in 9.5% Cremophor) was administered.
The rats were handled by the experimenter for 3 minutes for two days, and a Y-maze test was performed the next day. After administration of vehicle or test compound intraperitoneally one hour before test and of vehicle or dizocilpine subcutaneously 30 minutes before test, the Y-maze test was performed for 5 minutes by placing the rat at the end of one arm in the Y-maze and allowing the rat to move freely. The three arms positioned at the same angle in the Y-maze had the same length of 45 cm, the same width of 10 cm, and the same height of 20 cm. A case where a rat visited three different arms in succession was defined as an alternation behavior.
The alternation rate was determined by identifying the alternation behavior of the rat based on the visit record to each arm in the Y-maze test, the data on the alternation rate between groups was analyzed by one-way ANOVA and Dunnett's multiple comparison test, and then the effect was defined as significant when p<0.05. All results were expressed as mean±SEM.

The test system is the same in assay [2]. As to the kind of experiment: Object recognition test in rat model with cognitive ability decreased by dizocilpine. The following applies: for recognition index: P<0.01 vs negative control. The protocol:
As an animal model of cognitive disorder, an animal model of which the cognitive ability was decreased by administering dizocilpine, a cognitive inhibitor, was used.
as §1, with “Committee (IACUC)” for “Committee”, “an object recognition” for “a Y-maze”
To create an animal model inducing symptoms of decreased cognitive ability, the experimental animals were treated with dizocilpine, an N-methyl-D-aspartate (NMDA) receptor inhibitor.
as §2
The test compound was dissolved in 5% DMSO (dimethyl sulfoxide) in 10% Cremophor, and orally administered at doses of 0.03, 0.1, and 0.3 mg/kg in a volume of 1 ml per 1 kg of rat body weight one hour before training. To a control group, only vehicle (5% DMSO in 10% Cremophor) was administered.
Each rat was handled by the experimenter for 3 minutes or more, and box acclimation for 3 minutes was performed two times in an empty box before the experiment. After administration of vehicle or test compound intraperitoneally at a dose of 1 mg/kg one hour before training and of vehicle or dizocilpine subcutaneously 30 minutes before training, the rats were boxed for training. Training was conducted by exposing the rats in a box in which two identical plastic cylinders or stainless square pyramids were placed. One hour after training, the test was performed in a box in which one plastic cylinder and one stainless square pyramid was placed. During the test, the time during which the rat explored each object was measured. The test results were analyzed using a stainless square pyramid as a novel object in the case of rats trained in a box in which two plastic cylinders were placed and a plastic cylinder as a novel object in the case of rats trained in a box in which two stainless steel pyramids were placed.
The recognition index was calculated based on the time during which the object was explored, the data on the recognition index between groups was analyzed by one-way analysis of variance (ANOVA) and Dunnett's multiple comparison test, and then the effect was defined as significant when p<0.05. All results were expressed as mean±SEM.

Assay [3] deals with rat model undergone natural forgetting. As to the kind of experiment: Object recognition test in natural forgetting rat model. The settings on record: for Recognition index (mean ± SEM): test 24 h after training.

In the case of `C[C@]12N[C@H](Cc3ccccc31)c1ccccc12` [Dizocilpine, dizocilpine, reference compound], in assay [1] (dizocilpine 0.1 mg/kg sc only (negative control), vehicle group 70.1 ± 2.8), the “Alternation rate (mean ± SEM)” value worked out at 49.2 ± 5.3. Also, in assay [1] (dizocilpine only (negative control), P<0.001 vs vehicle group), the alternation rate came to 49.2 ± 5.3%. Moreover, the “Recognition index (mean ± SEM)” value in assay [2] (dizocilpine 0.1 mg/kg sc only (negative control), vehicle group 63.29 ± 1.56) turned out to be 49.77 ± 1.03.
With `Fc1ccc(-c2cnc3nc(COc4ccccn4)cn3c2)c(C(F)(F)F)c1` [test compound, 6-[4-fluoro-2-(trifluoromethyl)phenyl]-2-(2-pyridyloxymethyl)imidazo[1,2-a]pyrimidine], the “Alternation rate (mean ± SEM)” value in assay [1] (dizocilpine 0.1 mg/kg sc + test compound 0.1 mg/kg po, 5 min Y-maze, actual/maximum possible alternations × 100) was determined as 67.3 ± 3.5; in assay [1] (dizocilpine 0.1 mg/kg sc + test compound 0.3 mg/kg po), 57.3 ± 5.7; in assay [1] (dizocilpine 0.1 mg/kg sc + test compound 1 mg/kg po), 49.9 ± 7.2. In addition, the alternation rate in assay [1] (dizocilpine + test compound 0.1 mg/kg, P<0.001 vs negative control) is 67.3 ± 3.5%; in assay [1] (dizocilpine + test compound 0.3 mg/kg, tendency toward recovery), 57.3 ± 5.7%. Also, the “Recognition index (mean ± SEM)” value was found to be 51.95 ± 1.79 in assay [2] (dizocilpine 0.1 mg/kg sc + test compound 0.03 mg/kg po, test 1 h after training, index = novel/total exploring time × 100); 57.95 ± 1.8 in assay [2] (dizocilpine 0.1 mg/kg sc + test compound 0.1 mg/kg po, test 1 h after training); 57.62 ± 1.89 in assay [2] (dizocilpine 0.1 mg/kg sc + test compound 0.3 mg/kg po, test 1 h after training); 56.57 ± 2.37 in assay [3] (test compound 0.1 mg/kg po, first experiment, vehicle 48.61 ± 1.87); 59.77 ± 2.64 in assay [3] (test compound 0.3 mg/kg po, first experiment); 60.91 ± 2.72 in assay [3] (test compound 1 mg/kg po, second experiment, vehicle 51.20 ± 2.61). Besides, the “Recognition index (mean ± SEM)” value in assay [3] (test compound 3 mg/kg po, second experiment) stood at 56.20 ± 2.27. Further, the recognition index in assay [2] (dizocilpine + test compound 0.1 mg/kg) is recorded as 57.95±1.8%; in assay [2] (dizocilpine + test compound 0.3 mg/kg), 57.62±1.89%; in assay [3] (test compound 0.1 mg/kg, first experiment, P<0.05 vs control), 56.57±2.37; in assay [3] (test compound 0.3 mg/kg, first experiment, P<0.01 vs control), 59.77±2.64; in assay [3] (test compound 1 mg/kg, second experiment, P<0.01 vs control), 60.91±2.72; in assay [3] (test compound 3 mg/kg, second experiment), 56.20±2.27.
